From patent US9988400B2 (Genentech, Inc., priority 2013, dated 2018)

Target: T1, HEK cells stably transfected with tetracycline inducible hNR1 and hNR2A (Homo sapiens, UniProt Q05586+Q12879)
T1 construct: expressed in transfected cells; host or cells: HEK cells, stably transfected, tetracycline/doxycycline inducible
Test: Assay 1: Cell-Based Assay, cytosolic calcium response to positive allosteric modulators (with 30 μM glycine and 300 nM L-glutamate, EC30)
Settings: for EC50: cytosolic calcium response, with 30 μM glycine and 300 nM L-glutamate (EC30), — = no plateau was reached; for Max %: responses scaled relative to 100 μM L-glutamate maximal response (100%) and 0 μM L-glutamate (0%)
Experimental: Assay 1: Cell-Based Assay
HEK cells stably transfected with tetracycline inducible hNR1 and hNR2A were seeded into clear bottom 384 well poly-D-lysine coated plates (2.5×10^4 cells per well) in Minimum Essential Media (MEM; without L-) including 7.5 μg mL^−1 doxycycline and 500 μM (+)-ketamine. The cells were incubated at 37° C. in 5% CO2 for 24 h. For measurement of changes in cytosolic calcium, the seeding media was removed and the cells incubated at 37° C. for 60 min with 1× Becton Dickinson Calcium Assay Kit reagent in Hanks Balanced Salt Solution (HBSS; w/o magnesium, including 1.8 mM calcium, 0.65 mg ml^−1 probenecid and 10 μM (+)-ketamine, pH 7.15) then allowed to equilibrate to rt for 30 min. Concentration-effect curves to Positive Allosteric Modulators (PAMs) were constructed by adding different concentrations (with 30 μM glycine and 300 nM L-glutamate (EC30)) to different wells in HBSS. Compounds were added after a 10 second baseline read and maximum level of relative fluorescence units (RFU) was measured over a 5 min period. Responses were scaled relative to 100 μM L-glutamate maximal response (100%) and 0 μM L-glutamate (0%). EC50 values are provided for compounds reaching maximal response plateaus, and the max % (EC50 (- -)) only if no plateau was reached.
A four-parameter Hill equation was fitted to individual concentration-effect curves:
[formula] in which Y, S0, Sinf, AC50, n and c were effect, lower-asymptote, upper-asymptote, mid-point location, slope parameter, and concentration respectively.

T1 sequence (Q12879 23-1464, other chains not shown): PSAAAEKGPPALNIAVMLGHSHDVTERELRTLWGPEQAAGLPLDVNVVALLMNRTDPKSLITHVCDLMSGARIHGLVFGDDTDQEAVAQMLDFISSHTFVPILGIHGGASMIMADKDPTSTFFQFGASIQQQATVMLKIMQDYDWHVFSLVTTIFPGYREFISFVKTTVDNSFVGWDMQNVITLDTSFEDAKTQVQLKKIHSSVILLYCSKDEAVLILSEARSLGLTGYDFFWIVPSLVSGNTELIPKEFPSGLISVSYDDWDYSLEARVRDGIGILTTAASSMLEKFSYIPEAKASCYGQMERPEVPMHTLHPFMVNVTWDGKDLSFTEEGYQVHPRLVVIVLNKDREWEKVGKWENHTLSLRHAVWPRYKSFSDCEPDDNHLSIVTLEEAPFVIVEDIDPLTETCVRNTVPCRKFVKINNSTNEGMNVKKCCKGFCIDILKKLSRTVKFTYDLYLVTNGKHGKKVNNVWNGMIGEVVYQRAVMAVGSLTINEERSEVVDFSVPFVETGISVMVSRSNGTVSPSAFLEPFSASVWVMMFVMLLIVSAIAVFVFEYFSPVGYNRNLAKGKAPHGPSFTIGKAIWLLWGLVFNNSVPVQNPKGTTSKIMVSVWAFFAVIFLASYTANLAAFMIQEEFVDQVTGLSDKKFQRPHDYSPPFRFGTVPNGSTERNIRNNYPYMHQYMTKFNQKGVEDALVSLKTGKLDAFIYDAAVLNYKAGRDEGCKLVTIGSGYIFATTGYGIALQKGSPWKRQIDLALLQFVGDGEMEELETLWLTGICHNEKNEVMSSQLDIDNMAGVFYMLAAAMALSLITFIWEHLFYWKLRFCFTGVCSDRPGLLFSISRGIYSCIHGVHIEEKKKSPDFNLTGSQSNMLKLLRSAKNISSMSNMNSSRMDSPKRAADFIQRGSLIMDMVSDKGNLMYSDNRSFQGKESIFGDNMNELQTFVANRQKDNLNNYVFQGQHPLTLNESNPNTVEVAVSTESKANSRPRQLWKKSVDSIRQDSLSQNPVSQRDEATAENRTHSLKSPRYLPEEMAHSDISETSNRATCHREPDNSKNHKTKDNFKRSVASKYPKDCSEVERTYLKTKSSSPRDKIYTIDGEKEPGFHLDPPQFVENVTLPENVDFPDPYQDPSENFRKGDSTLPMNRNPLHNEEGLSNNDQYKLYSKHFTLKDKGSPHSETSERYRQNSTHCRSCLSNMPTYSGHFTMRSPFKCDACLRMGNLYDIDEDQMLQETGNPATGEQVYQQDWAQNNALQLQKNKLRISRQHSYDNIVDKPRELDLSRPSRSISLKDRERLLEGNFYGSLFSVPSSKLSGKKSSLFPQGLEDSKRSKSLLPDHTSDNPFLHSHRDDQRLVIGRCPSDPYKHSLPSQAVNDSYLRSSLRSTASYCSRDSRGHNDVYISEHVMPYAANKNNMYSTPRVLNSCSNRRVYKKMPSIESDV

SMILES	EC50 (Table 3) [µM]	EC50 (Table 2) [µM]	Max % (Table 2) [%]
Cc1sc2nc(Cn3nc(C(F)(F)F)cc3Cl)cc(=O)n2c1Cl [compound 192, 3-chloro-7-[[5-chloro-3-(trifluoromethyl)pyrazol-1-yl]methyl]-2-methyl-thiazolo[3,2-a]pyrimidin-5-one]	0.198	–	–
Cc1sc2nc(Cn3nc(C(F)(F)F)cc3Cl)cc(=O)n2c1C1CC1C (stereo not shown) [compound 118, 7-[[5-chloro-3-(trifluoromethyl)pyrazol-1-yl]methyl]-2-methyl-3-(2-methylcyclopropyl)thiazolo[3,2-a]pyrimidin-5-one]	0.169	–	–
CCN(Cc1cc(=O)n2c(C(C)(C)O)csc2n1)c1ccc(F)cc1 [Example 10.19, 7-[(N-ethyl-4-fluoro-anilino)methyl]-3-(1-hydroxy-1-methyl-ethyl)thiazolo[3,2-a]pyrimidin-5-one]	–	0.837	165
O=c1cc(Cn2nc(Cl)cc2C(F)(F)F)nc2scc(Br)n12 [compound 226, 3-bromo-7-[[3-chloro-5-(trifluoromethyl)pyrazol-1-yl]methyl]thiazolo[3,2-a]pyrimidin-5-one]	1.42	–	–
Cc1sc2nc(Oc3cccc(C(F)(F)F)c3F)cc(=O)n2c1C1CC1C#N (stereo not shown) [compound 101, 2-[7-[2-fluoro-3-(trifluoromethyl)phenoxy]-2-methyl-5-oxo-thiazolo[3,2-a]pyrimidin-3-yl]cyclopropanecarbonitrile]	3.71	–	–
CCNC(=O)c1c(C(F)(F)F)sc2nc(Cc3cccc(C(F)(F)F)c3F)cc(=O)n12 [compound 40, N-ethyl-7-[[2-fluoro-3-(trifluoromethyl)phenyl]methyl]-5-oxo-2-(trifluoromethyl)thiazolo[3,2-a]pyrimidine-3-carboxamide]	1.32	–	–
Cc1sc2nc(Cn3nc(C(F)(F)F)cc3Cl)cc(=O)n2c1-c1cscn1 [compound 151, 7-[[5-chloro-3-(trifluoromethyl)pyrazol-1-yl]methyl]-2-methyl-3-thiazol-4-yl-thiazolo[3,2-a]pyrimidin-5-one]	0.538	–	–
CCN(Cc1cc(=O)n2c(C3CC3CO)c(C)sc2n1)c1ccc(F)cc1 (single isomer, unassigned) [Example 5.18, 7-((ethyl(4-fluorophenyl)amino)methyl)-3-(trans-2-(hydroxymethyl)cyclopropyl)-2-methyl-5H-thiazolo[3,2-a] pyrimidin-5-one]	–	0.091	164
Cc1sc2nc(CN(C)c3ccc(F)cn3)cc(=O)n2c1C1CC1CO (stereo not shown) [compound 182, 7-[[(5-fluoro-2-pyridyl)-methyl-amino]methyl]-3-[2-(hydroxymethyl)cyclopropyl]-2-methyl-thiazolo[3,2-a]pyrimidin-5-one]	0.175	–	–
CCN(Cc1cc(=O)n2cc(C)sc2n1)c1ccc(F)cc1 [Example 11.3, 7-[(N-ethyl-4-fluoro-anilino)methyl]-2-methyl-thiazolo[3,2-a]pyrimidin-5-one]	–	3.2	132
CNC(=O)c1c(C(F)(F)F)sc2nc(Cn3nc(C)cc3C(F)(F)F)cc(=O)n12 [compound 62, N-methyl-7-[[3-methyl-5-(trifluoromethyl)pyrazol-1-yl]methyl]-5-oxo-2-(trifluoromethyl)thiazolo[3,2-a]pyrimidine-3-carboxamide]	24.6	–	–
CCN(Cc1cc(=O)n2c(C)c(C)sc2n1)c1ccc(F)cc1 [Example 5.23, 7-[(N-ethyl-4-fluoro-anilino)methyl]-2,3-dimethyl-thiazolo[3,2-a]pyrimidin-5-one]	–	2.6	135
CNC(=O)c1c(C)sc2nc(Cn3nc(C(F)(F)F)cc3C3CC3)cc(=O)n12 [Example 16.1, 7-((5-cyclopropyl-3-(trifluoromethyl)-1H-pyrazol-1-yl)methyl)-N,2-dimethyl-5-oxo-5H-thiazolo[3,2-a]pyrimidine-3-carboxamide]	–	2.3	140
CNC(=O)c1c(C)sc2nc(Cn3nc(C(F)(F)F)cc3Cl)cc(=O)n12 [compound 96, 7-[[5-chloro-3-(trifluoromethyl)pyrazol-1-yl]methyl]-N,2-dimethyl-5-oxo-thiazolo[3,2-a]pyrimidine-3-carboxamide]	1.21	–	–
